pIC50: −log10 of the molar value.
Target: T1, 3-hydroxy-3-methylglutaryl-coenzyme A reductase (Rattus norvegicus, UniProt P51639)
T1 sequence (P51639 whole entry): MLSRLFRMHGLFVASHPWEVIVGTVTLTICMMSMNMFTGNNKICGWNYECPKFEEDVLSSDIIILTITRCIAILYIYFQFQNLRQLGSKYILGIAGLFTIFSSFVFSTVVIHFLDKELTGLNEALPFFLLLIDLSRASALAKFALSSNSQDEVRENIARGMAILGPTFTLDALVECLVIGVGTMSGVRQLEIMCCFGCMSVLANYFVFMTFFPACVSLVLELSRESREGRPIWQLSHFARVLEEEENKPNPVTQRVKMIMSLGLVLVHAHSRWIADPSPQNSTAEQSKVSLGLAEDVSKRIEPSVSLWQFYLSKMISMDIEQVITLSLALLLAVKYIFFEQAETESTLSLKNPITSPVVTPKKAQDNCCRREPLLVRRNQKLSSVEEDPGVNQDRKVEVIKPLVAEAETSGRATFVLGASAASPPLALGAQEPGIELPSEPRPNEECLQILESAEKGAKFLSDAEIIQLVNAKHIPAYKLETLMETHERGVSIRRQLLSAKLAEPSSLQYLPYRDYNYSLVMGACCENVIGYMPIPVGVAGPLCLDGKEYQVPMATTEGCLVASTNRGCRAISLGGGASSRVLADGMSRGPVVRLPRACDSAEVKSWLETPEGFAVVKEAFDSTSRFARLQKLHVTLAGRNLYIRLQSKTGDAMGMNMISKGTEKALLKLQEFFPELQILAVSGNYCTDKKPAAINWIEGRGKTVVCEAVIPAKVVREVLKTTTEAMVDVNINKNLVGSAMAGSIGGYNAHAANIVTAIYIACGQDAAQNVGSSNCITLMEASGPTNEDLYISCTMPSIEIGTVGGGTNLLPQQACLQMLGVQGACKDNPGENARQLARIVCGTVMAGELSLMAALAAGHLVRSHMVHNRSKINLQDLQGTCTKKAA
Experiment: Compound was tested for its inhibitory activity against rat liver microsomal HMG-CoA reductase

SMILES | pIC50
Cn1nnnc1C(/C=C/C(O)CC(O)CC(=O)O)=C1c2ccc(F)cc2-c2cc(F)ccc21 (stereo unspecified) | < 5.39
Cn1nnnc1C(=C\c1ccc(F)cc1)/C=C/C(O)CC(O)CC(=O)O (stereo unspecified) | 3.68
Cn1nnnc1C(CCC(O)CC(O)CC(=O)O)Cc1ccc(F)cc1 (stereo unspecified) | < 3.60
Cn1nnnc1C(/C=C/C(O)CC(O)CC(=O)O)=C/c1ccc(F)cc1 (stereo unspecified) | < 3.60

Further compounds by rising pIC50, results first:

pIC50 | SMILES
5.34 | O=C(O)CC(O)CC(O)/C=C/c1c(-c2ccc(F)cc2)c2ccccc2n2nnnc12 (stereo unspecified)
7.37 | Cn1nnnc1C(/C=C/C(O)CC(O)CC(=O)O)=C(c1ccc(F)cc1)c1ccc(F)cc1 (stereo unspecified)

Reference: ChEMBL document CHEMBL1126339, “HMG-CoA reductase inhibitors 4. Tetrazole series: conformational constraints and structural requirements at the hydrophobic domain” (Bioorg Med Chem Lett, 1992)
